Values belong to the compound of their own block, whether it stands above or below them.
Legend:
falcipain-2 (FP-2) = biological target: T1, falcipain-2 (FP-2) (Plasmodium falciparum, UniProt Q8I6U4); format: biochemical; details: ratio 6d:12d:5, relative to 5 = 1
T1 sequence (Q8I6U4 244-484): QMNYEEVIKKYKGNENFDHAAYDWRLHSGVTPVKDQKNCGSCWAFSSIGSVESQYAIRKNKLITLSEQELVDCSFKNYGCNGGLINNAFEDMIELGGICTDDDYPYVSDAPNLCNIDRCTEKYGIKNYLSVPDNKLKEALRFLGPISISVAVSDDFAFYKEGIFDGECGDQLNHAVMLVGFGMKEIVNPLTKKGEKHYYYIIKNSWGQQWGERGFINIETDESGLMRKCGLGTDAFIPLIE

[1] = tested on: P. falciparum W2 strain (chloroquine-resistant); test: Antiplasmodial activity, growth of P. falciparum W2 strain; format: cell-based; details: Plasmodium falciparum, W2, read-out: IC50 W2
[2] = tested on: P. falciparum FCR3 (atovaquone resistant); test: Antiplasmodial activity, FCR3 strain; format: cell-based; details: Plasmodium falciparum, FCR3, read-out: IC50 FCR3
[3] = tested on: P. falciparum V1/S (chloroquine and pyrimethamine resistant); test: microbe, parasite or virus in culture; format: cell-based; details: Plasmodium falciparum, read-out: IC50 VI/S
[4] = tested on: P. falciparum 3D7 (chloroquine-sensitive); test: Antiplasmodial activity, 3D7 strain; format: cell-based; details: Plasmodium falciparum, 3D7, read-out: IC50 3D7
[5] = tested on: P. falciparum D6 (chloroquine sensitive, mefloquine resistant); test: Antiplasmodial activity, D6 strain; format: cell-based; details: Plasmodium falciparum, D6, read-out: IC50 D6
[6] = tested on: P. falciparum trophozoites (food vacuole); details: parasites incubated with compound; cited from earlier work

SMILES: CC(C)C[C@H](NC(=O)c1ccc(CO[C@H]2O[C@@H]3O[C@@]4(C)CC[C@H]5[C@H](C)CC[C@@H]([C@H]2C)[C@@]35OO4)cc1)C(=O)N[C@H](/C=C/S(=O)(=O)c1ccccc1)CCc1ccccc1 [Compound 6d]
IC50 ratio for FP-2 inhibition (falcipain-2 (FP-2)): 1650

IC50 ratio for FP-2 inhibition (falcipain-2 (FP-2)): 70
SMILES: CC(C)C[C@H](NC(=O)OC(C)(C)C)C(=O)N[C@H](/C=C/S(=O)(=O)c1ccccc1)CCc1ccccc1 [Compound 12d]

IC50 ratio for FP-2 inhibition (falcipain-2 (FP-2)): 1
SMILES: CC(C)C[C@H](NC(=O)N1CCOCC1)C(=O)N[C@H](/C=C/S(=O)(=O)c1ccccc1)CCc1ccccc1 [Compound 5, Mu-Leu-hPhe-VSPh]

SMILES: CCN(CC)CCCC(C)Nc1ccnc2cc(Cl)ccc12 (stereo not drawn) [Chloroquine]
IC50 [1]: 78.1 ± 6.91 nM
IC50 [2]: 51.1 ± 0.1 nM
IC50 [3]: 65 ± 4.1 nM
IC50 [4]: 11.6 ± 1.1 nM
IC50 [5]: 16.9 ± 2.1 nM

SMILES: CC(C)C[C@H](NC(=O)[C@H]1O[C@@H]1C(=O)O)C(=O)NCCCCN=C(N)N [Compound E64, E64]
swollen food vacuole abnormality (block in hemoglobin hydrolysis) [6]: observed
